This is an account of results in US8153593B2, “Transglutaminase inhibitors and methods of use thereof” (The Board of Trustees of the Leland Stanford Junior …, priority 2003, dated 2012).

For assay [1], the target named is T1, recombinant human tissue transglutaminase (Homo sapiens, UniProt P21980).
T1 construct: made in house
T1 sequence (P21980 1-687): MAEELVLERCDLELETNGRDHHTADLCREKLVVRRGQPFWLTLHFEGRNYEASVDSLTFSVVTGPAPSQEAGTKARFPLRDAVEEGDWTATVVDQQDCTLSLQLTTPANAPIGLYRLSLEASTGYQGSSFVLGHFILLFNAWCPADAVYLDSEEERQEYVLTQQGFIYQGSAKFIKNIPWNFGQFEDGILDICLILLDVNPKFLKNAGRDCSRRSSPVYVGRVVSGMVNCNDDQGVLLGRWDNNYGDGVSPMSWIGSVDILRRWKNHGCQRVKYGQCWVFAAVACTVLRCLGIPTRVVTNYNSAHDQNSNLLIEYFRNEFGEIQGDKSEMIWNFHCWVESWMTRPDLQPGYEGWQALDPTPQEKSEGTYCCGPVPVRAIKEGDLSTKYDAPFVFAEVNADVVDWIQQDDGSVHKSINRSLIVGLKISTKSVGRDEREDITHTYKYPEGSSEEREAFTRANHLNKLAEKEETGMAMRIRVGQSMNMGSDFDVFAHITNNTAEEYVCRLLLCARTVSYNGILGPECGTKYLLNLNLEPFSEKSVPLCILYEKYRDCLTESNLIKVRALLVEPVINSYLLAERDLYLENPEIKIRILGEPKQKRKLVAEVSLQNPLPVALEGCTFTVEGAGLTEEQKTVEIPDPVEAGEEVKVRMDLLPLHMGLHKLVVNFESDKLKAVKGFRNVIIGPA
As to the kind of experiment: tTGase inhibition assay, residual activity by glutamate dehydrogenase coupled assay. Type of assay: biochemical. To be noted: dihydroisoxazoles, Table 1.

For the next assay, the target named is T2, jejunal TG2 (Rattus norvegicus, UniProt Q9WVJ6).
T2 construct: from tissue; host or cells: rat jejunal mucosa
T2 sequence (Q9WVJ6 1-686): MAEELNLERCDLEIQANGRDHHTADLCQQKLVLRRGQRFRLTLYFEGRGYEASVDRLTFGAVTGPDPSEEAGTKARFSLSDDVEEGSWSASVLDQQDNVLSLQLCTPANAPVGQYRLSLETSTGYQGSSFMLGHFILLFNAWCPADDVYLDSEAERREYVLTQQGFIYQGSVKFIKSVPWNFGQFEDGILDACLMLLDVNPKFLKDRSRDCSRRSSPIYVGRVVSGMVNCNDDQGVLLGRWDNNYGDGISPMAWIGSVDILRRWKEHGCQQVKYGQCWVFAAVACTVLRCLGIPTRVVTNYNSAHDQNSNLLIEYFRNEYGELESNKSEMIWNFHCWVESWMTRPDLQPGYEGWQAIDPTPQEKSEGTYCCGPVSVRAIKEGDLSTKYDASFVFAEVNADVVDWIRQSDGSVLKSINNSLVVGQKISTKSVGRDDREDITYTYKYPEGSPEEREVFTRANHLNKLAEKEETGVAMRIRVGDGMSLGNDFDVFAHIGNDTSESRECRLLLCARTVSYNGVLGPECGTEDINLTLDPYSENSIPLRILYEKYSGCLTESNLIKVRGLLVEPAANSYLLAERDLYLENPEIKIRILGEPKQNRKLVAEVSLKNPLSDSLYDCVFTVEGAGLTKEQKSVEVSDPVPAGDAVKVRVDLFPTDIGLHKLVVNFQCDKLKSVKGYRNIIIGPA
As to the kind of experiment: Jejunal mucosal TG2 activity after oral dosing in kneaded gluten vehicle. To be noted: 35 mg/kg oral in kneaded gluten vehicle, 1 h after administration. Format: in vivo, rats. The source says:
(§1) Due to the absence of an appropriate animal model for Celiac Sprue, the therapeutic benefit of TG2 inhibitors for this disease can only be validated in patients. Our goal is therefore to identify a safe, oral TG2 inhibitor that can block mucosal TG2 activity in the upper small intestine of Celiac Sprue patients. Such an agent could be used in the context of a short (2 week) blinded crossover trial in Celiac Sprue patients to determine if TG2 inhibition protects a Celiac Sprue patient from gluten-induced malabsorption. From available data, KCC009 may be precisely such a compound. […] To test whether orally administered KCC009 can inhibit jejunal TG2 activity, adult male rats were dosed with 35 mg/kg KCC009 in a kneaded gluten vehicle. Animals were sacrificed 1 h after administration of either vehicle-gluten (n=3) or drug-gluten (n=4), and jejunal mucosa was harvested. In vehicle treated animals, jejunal TG2 activity was 21±7 pmol/min/mg protein, whereas in KCC009 treated rats TG2 activity of 5.5±3 pmol/min/mg protein was observed. Thus, a suitable oral formulation may therefore enable local delivery of KCC009 to intestinal mucosa.

Assay [2] concerns the target T3, small intestine mucosal TG2 (Mus musculus, UniProt P21981).
T3 construct: from tissue; host or cells: mouse small intestinal mucosa
T3 sequence (P21981 1-686): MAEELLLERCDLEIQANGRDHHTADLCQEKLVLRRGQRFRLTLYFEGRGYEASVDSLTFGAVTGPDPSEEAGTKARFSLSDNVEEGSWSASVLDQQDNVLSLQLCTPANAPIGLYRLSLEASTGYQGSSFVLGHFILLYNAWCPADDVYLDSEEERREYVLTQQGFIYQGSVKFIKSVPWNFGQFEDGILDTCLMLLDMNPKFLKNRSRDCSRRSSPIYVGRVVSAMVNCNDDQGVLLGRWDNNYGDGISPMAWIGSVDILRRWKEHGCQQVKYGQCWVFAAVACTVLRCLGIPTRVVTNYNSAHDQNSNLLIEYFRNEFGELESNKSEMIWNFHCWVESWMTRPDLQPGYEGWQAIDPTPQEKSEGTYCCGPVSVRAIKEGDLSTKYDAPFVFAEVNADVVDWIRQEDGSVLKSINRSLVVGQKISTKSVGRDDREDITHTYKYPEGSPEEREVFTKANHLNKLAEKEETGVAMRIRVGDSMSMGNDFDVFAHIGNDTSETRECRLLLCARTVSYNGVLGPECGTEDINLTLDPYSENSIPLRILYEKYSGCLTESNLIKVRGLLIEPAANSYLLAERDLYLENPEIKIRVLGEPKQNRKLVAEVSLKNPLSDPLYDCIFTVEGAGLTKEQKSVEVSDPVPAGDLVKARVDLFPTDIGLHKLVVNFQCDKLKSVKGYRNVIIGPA
In words: Small intestine mucosal TG2 activity after intra-peritoneal dosing. Format: in vivo, mice. The protocol: FIG. 7: Time dependent inhibition of small intestine mucosal TG2 in mice dosed intra-peritoneally with 60 mg/kg KCC009. Mice were sacrificed at different times, intestinal mucosa were harvested and assayed for TG2 activity.
as §1

For assay [3], the system named is subcutaneous murine DBT glioblastoma tumors. In words: Subcutaneous DBT glioblastoma tumor study with BCNU. The settings on record: in vivo, combination with BCNU.

In the case of `O=C(N[C@@H](Cc1ccc(O)cc1)C(=O)NCC1CC(Br)=NO1)OCc1ccccc1` (stereo partly shown) [Compound 59], in assay [1], the kinh stood at 0.86 min⁻¹ and the kinh/Ki is recorded as 2000 min^−1M^−1. For the same compound, at jejunal TG2, the “jejunal TG2 activity” value came out at 5.5±3 pmol/min/mg protein. In addition, the “time to complete recovery of TG2 activity” value in assay [2] (60 mg/kg intra-peritoneal) was at most 8 h. In addition, in assay [2] (60 mg/kg intra-peritoneal, short timescale (˜1 h)), the “inhibition of TG2 activity” value is reported as “strong inhibition of TG2 activity”. The “TG2 inhibition in small intestinal tissue” value in assay [2] (mice, preliminary pharmacodynamic study) is recorded as “efficient TG2 inhibition”. In addition, the “synergism with BCNU” value in assay [3] is “excellent synergism”.
